system: multi-drug-resistant NCl/ADR-carcinoma cell line; test: Growth inhibition of multi-drug-resistant NCl/ADR carcinoma cell line, crystal-violet assay; format: cell-based, human; settings: ratio of IC50 NCl/ADR to IC50 MCF-7
Source text: In Vitro Activity of Epothilone Derivatives on Human Tumor Cell Lines
a) IC50 values [nM] for the growth inhibition of human MCF-7-breast and multi-drug-resistant NCl/ADR-carcinoma cell lines of epothilone derivatives with 13Z-unsaturated in the crystal-violet assay in comparison to Taxol.
b) IC50 values [nM] for the growth inhibition of human MCF-7-breast- and multi-drug-resistant NCl/ADR carcinoma cell lines of epothilone derivative with 13,14-α-epoxide, which was formed from the 13-Z-configured double bond in the crystal-violet assay in comparison to Taxol.
c) IC50 values [nM] for the growth inhibition of human MCF-7-breast- and multi-drug-resistant NCl/ADR-carcinoma cell lines of epothilone derivatives with 13,14-epoxide, which was formed from the 13-E-configured double bond, in a crystal-violet assay in comparison to Taxol.

Row | Selectivity = IC50 (NCl/ADR) : IC50 (MCF-7) | SMILES
1 | 2.8 | C=CCC[C@H]1C(=O)C(C)(C)[C@@H](O)CC(=O)O[C@H](/C(C)=C/c2ccccn2)C/C=C(/C)CCC[C@H](C)[C@@H]1O [Example 2, (4S,7R,8S,9S,13Z,16S(E))-4,8-Dihydroxy-16-(1-methyl-2-(2-pyridyl)ethenyl)-1-oxa-5,5,9,13-tetramethyl-7-(but-3-en-1-yl)-cyclohexadec-13-ene-2,6-dione]
2 | 7.0 | C#CCC[C@H]1C(=O)C(C)(C)[C@@H](O)CC(=O)O[C@H](/C(C)=C/c2ccccn2)C[C@@H]2O[C@]2(C)CCC[C@H](C)[C@@H]1O [Example 4A, (1S,3S(E),7S,10R,11S,12S,16R)-7,11-Dihydroxy-10-(but-3-in-1-yl)-3-(1-methyl-2-(2-pyridyl)ethenyl)-8,8,12,16-tetramethyl-4,17-dioxabicyclo[14.1.0]heptadecane-5,9-dione]
3 | 1.2 | C=CCC[C@H]1C(=O)C(C)(C)[C@@H](O)CC(=O)O[C@H](/C(C)=C/c2ccccn2)C[C@@H]2O[C@]2(C)CCC[C@H](C)[C@@H]1O [Example 5A, (1S,3S(E),7S,10R,11S,12S,16R)-7,11-Dihydroxy-10-(but-3-en-1-yl)-3-(1-methyl-2-(2-pyridyl)ethenyl)-8,8,12,16-tetramethyl-4,17-dioxabicyclo[14.1.0]heptadecane-5,9-dione]
4 | 2.4 | C=CC[C@H]1C(=O)C(C)(C)[C@@H](O)CC(=O)O[C@H](/C(C)=C/c2csc(C)n2)C/C=C(/C)CCC[C@H](C)[C@@H]1O [Example 9, (4S,7R,8S,9S,13Z,16S(E))-4,8-Dihydroxy-16-(1-methyl-2-(2-methylthiazol-4-yl)ethenyl)-1-oxa-5,5,9,13-tetramethyl-7-(prop-2-en-1-yl)-cyclohexadec-13-ene-2,6-dione]
5 | 3.0 | C=CC[C@H]1C(=O)C(C)(C)[C@@H](O)CC(=O)O[C@H](/C(C)=C/c2csc(C)n2)C[C@@H]2O[C@]2(C)CCC[C@H](C)[C@@H]1O [Example 10A, (1S,3S(E),7S,10R,11S,12S,16R)-7,11-Dihydroxy-10-(prop-2-en-1-yl)-3-(1-methyl-2-(2-methylthiazol-4-yl)ethenyl)-8,8,12,16-tetramethyl-4,17-dioxabicyclo[14.1.0]heptadecane-5,9-dione]
6 | 1.5 | C=CC[C@H]1C(=O)C(C)(C)[C@@H](O)CC(=O)O[C@H](/C(C)=C/c2csc(C)n2)C[C@H]2O[C@]2(C)CCC[C@H](C)[C@@H]1O [Example 12A or B]
7 | 4.8 | C#CC[C@H]1C(=O)C(C)(C)[C@@H](O)CC(=O)O[C@H](/C(F)=C/c2csc(C)n2)C[C@@H]2O[C@]2(C)CCC[C@H](C)[C@@H]1O [Example 25, (1S,3S(Z),7S,10R,11S,12S,16R)-7,11-Dihydroxy-3-(1-fluoro-2-(2-methyl-4-thiazolyl)ethenyl)-10-(prop-2-in-1-yl)-8,8,12,16-tetramethyl-4,17-dioxabicyclo[14.1.0]heptadecane-5,9-dione]
8 | 3.3 | C#CC[C@H]1C(=O)C(C)(C)[C@@H](O)CC(=O)O[C@H](/C(F)=C/c2csc(C)n2)C[C@@H]2O[C@@]2(C)CCC[C@H](C)[C@@H]1O [Example 26A or B]
9 | 1.6 | C#CC[C@H]1C(=O)C(C)(C)[C@@H](O)CC(=O)O[C@H](/C(F)=C/c2coc(C)n2)C/C=C(/C)CCC[C@H](C)[C@@H]1O [Example 27, (4S,7R,8S,9S,13Z,16S(Z))-4,8-Dihydroxy-16-(1-fluoro-2-(2-methyloxazol-4-yl)ethenyl)-7-(prop-2-in-1-yl)-1-oxa-5,5,9,13-tetramethyl-cyclohexadec-13-ene-2,6-dione]

Row | SMILES | Selectivity = IC50 (NCl/ADR) : IC50 (MCF-7)
10 | C#CCC[C@H]1C(=O)C(C)(C)[C@@H](O)CC(=O)O[C@H](/C(C)=C/c2ccccn2)C/C=C(/C)CCC[C@H](C)[C@@H]1O [Example 1, (4S,7R,8S,9S,13Z,16S(E))-4,8-Dihydroxy-16-(1-methyl-2-(2-pyridyl)ethenyl)-1-oxa-5,9,13-tetramethyl-7-(but-3-in-1-yl)-cyclohexadec-13-ene-2,6-dione] | 2.5
11 | C#CC[C@H]1C(=O)C(C)(C)[C@@H](O)CC(=O)O[C@H](/C(F)=C/c2csc(C)n2)C/C=C(/C)CCC[C@H](C)[C@@H]1O [Example 23, (4S,7R,8S,9S,13Z,16S(Z))-4,8-Dihydroxy-16-(1-fluoro-2-(2-methylthiazol-4-yl)ethenyl)-7-(prop-2-in-1-yl)-1-oxa-5,5,9,13-tetramethyl-cyclohexadec-13-ene-2,6-dione] | 5.6

same assay, conditions: statement in words, compared with Taxol

Row | SMILES | action on the multi-drug-resistant cell line NCl/ADR
12 | CC(=O)O[C@H]1C(=O)[C@@]2(C)[C@H]([C@H](OC(=O)c3ccccc3)[C@]3(O)C[C@H](OC(=O)[C@H](O)[C@@H](NC(=O)c4ccccc4)c4ccccc4)C(C)=C1C3(C)C)[C@]1(OC(C)=O)CO[C@@H]1C[C@@H]2O [Taxol, reference compound] | not exhibited
